Data from patent US9028858B2 (Coloplast A/S, priority 2003, dated 2015).
Where two headings read alike, the source gives them in different places.

Key:
[1] = 23° C., 8 months, pH 7 without buffer
Method: Samples were β-sterilized at 50 kGy and stored at 23° C. for 8 months.
The results were calculated from 86 separate samples (mean value±standard deviation of mean value) (Table 5.1).

[2] = tested on: 7 different bacterial strains; details: for bacterial survival rate, Mean: exposed 60 min.; for surviving bacteria, Mean (% of control): 1% hydrogen peroxide
[3] = Method: The pH value of the latter solution was adjusted to 5.5 with 1 M NaOH. 10.0 mL aliquots of each of the two solutions were taken out and placed in 50 mL brown PE-containers.
The samples were β-irradiation at Risø National Laboratory. The samples were measured before irradiation, immediately after irradiation and after 2 and 4 weeks storage at 60° C. (triple determination).

[4] = Various stabilizers: degradation of H2O2 at pH 4, 5.5 and 7; details: no stabilizer, 25 mM citric acid, approx. 1% H2O2
Method: Therefore the investigation of the influence of the pH-value on the stability in our system was included in the study.
24 different kinds of swelling media containing different stabilizers (one without stabilizer) and 3 different pH-values (pH 4, 5.5 and 7) were prepared. […] The concentration of sodium chloride in each of these three swelling media was 0.7% (w/w). Sodium chloride was tested because it could be used as an osmolality increasing agent. […] Two different kinds of material for the stick-pack were used, one with “peel” and one with “non-peel”. […] The irradiation dose was 2*26 kGy.
The stick-pack with “peel” was a laminated material consisting of PETP (12 μm), aluminium (9 μm) and polyethylene peel (polyethylene+10% polybutylene) (70 μm). […] The stick-packs were made out of a stamped area of 13×35 mm that was welded in the longitudinal direction by 1×3 units on a welder. It was welded by 2×2.2 units across in one end of the stick-pack, and in the other end by 4.0 bar, 130° C. and 3.5 s (breakable seal).
The stick-packs were stored for stability testing at 23° C. and 40° C. Samples were taken out after irradiation and after 2 and 4 weeks at 40° C. and 8 and 16 weeks at 23° C.

[5] = hydrogen peroxide taken alone
[6] = for %-point H2O2 after storage / Appearance of catheter (0–5; 0 = perfect, 5 = unacceptable) / Appearance of swelling medium (0–5) / Loss of H2O2 (%/day) / pH after storage: 1 week
[7] = Effect of buffer (citrate) in swelling medium on degradation of H2O2; details: no stabilizer
[8] = initial 0.2%-point H2O2, 60° C., no PEG 2000
[9] = initial 0.2%-point H2O2, 80° C., no PEG 2000
[10] = initial 0.4%-point H2O2, 60° C., no PEG 2000
[11] = initial 0.4%-point H2O2, 80° C., no PEG 2000
[12] = initial 0.8%-point H2O2, 60° C., no PEG 2000
[13] = initial 0.8%-point H2O2, 80° C., no PEG 2000
[14] = initial 1.6%-point H2O2, 60° C., 6% PEG 2000
[15] = initial 1.6%-point H2O2, 60° C., no PEG 2000
[16] = initial 1.6%-point H2O2, 80° C., 6% PEG 2000
[17] = initial 1.6%-point H2O2, 80° C., no PEG 2000

OO [Std H2O2, hydrogen peroxide]
H2O2 loss per day (%) ([1]; initial 1% H2O2, 0% PVP C-15, 50 kGy): 0.088 ± 0.029%
H2O2 loss per day (%) ([1]; initial 1% H2O2, 6% PVP C-15, 50 kGy): 0.167 ± 0.048%
bacterial survival rate, Mean ([2]; 0.016% hydrogen peroxide): 49.8
bacterial survival rate, Mean ([2]; 0.031% hydrogen peroxide): 38.1
bacterial survival rate, Mean ([2]; 0.063% hydrogen peroxide): 27.8
bacterial survival rate, Mean ([2]; 0.125% hydrogen peroxide): 14.5
bacterial survival rate, Mean ([2]; 0.250% hydrogen peroxide): 9.1
bacterial survival rate, Mean ([2]; 0.500% hydrogen peroxide): 0.2
bacterial survival rate, Mean ([2]; 1.000% hydrogen peroxide): 0.0
surviving bacteria, Mean (% of control) ([2]; exposure time 5 min): 37 % of control
surviving bacteria, Mean (% of control) ([2]; exposure time 10 min): 17 % of control
surviving bacteria, Mean (% of control) ([2]; exposure time 15 min): 6 % of control
Concentration of H2O2 (%-point) ([3]; Series I, catheter swelled in a solution of PVP, 0 kGy, 1 week at 60° C.): 0.97 %-point
Concentration of H2O2 (%-point) ([3]; Series I, catheter swelled in a solution of PVP, 0 kGy, 2 weeks at 60° C.): 0.87 %-point
Concentration of H2O2 (%-point) ([3]; Series I, catheter swelled in a solution of PVP, 0 kGy, after irradiation): 1.00 %-point
Concentration of H2O2 (%-point) ([3]; Series I, catheter swelled in a solution of PVP, 25 kGy, 1 week at 60° C.): 0.79 %-point
Concentration of H2O2 (%-point) ([3]; Series I, catheter swelled in a solution of PVP, 25 kGy, 2 weeks at 60° C.): 0.70 %-point
Concentration of H2O2 (%-point) ([3]; Series I, catheter swelled in a solution of PVP, 25 kGy, after irradiation): 0.85 %-point
Concentration of H2O2 (%-point) ([3]; Series I, catheter swelled in a solution of PVP, 50 kGy, 1 week at 60° C.): 0.58 %-point
Concentration of H2O2 (%-point) ([3]; Series I, catheter swelled in a solution of PVP, 50 kGy, 2 weeks at 60° C.): 0.46 %-point
Concentration of H2O2 (%-point) ([3]; Series I, catheter swelled in a solution of PVP, 50 kGy, after irradiation): 0.73 %-point
Concentration of H2O2 (%-point) ([3]; Series I, catheter swelled in a solution of PVP, 75 kGy, 1 week at 60° C.): 0.37 %-point
Concentration of H2O2 (%-point) ([3]; Series I, catheter swelled in a solution of PVP, 75 kGy, 2 weeks at 60° C.): 0.26 %-point
Concentration of H2O2 (%-point) ([3]; Series I, catheter swelled in a solution of PVP, 75 kGy, after irradiation): 0.57 %-point
Concentration of H2O2 (%-point) ([3]; Series II, catheter swelled in distilled water, 0 kGy, 1 week at 60° C.): 0.98 %-point
Concentration of H2O2 (%-point) ([3]; Series II, catheter swelled in distilled water, 0 kGy, 2 weeks at 60° C.): 0.92 %-point
Concentration of H2O2 (%-point) ([3]; Series II, catheter swelled in distilled water, 0 kGy, after irradiation): 1.00 %-point
Concentration of H2O2 (%-point) ([3]; Series II, catheter swelled in distilled water, 25 kGy, 1 week at 60° C.): 0.91 %-point
Concentration of H2O2 (%-point) ([3]; Series II, catheter swelled in distilled water, 25 kGy, 2 weeks at 60° C.): 0.85 %-point
Concentration of H2O2 (%-point) ([3]; Series II, catheter swelled in distilled water, 25 kGy, after irradiation): 0.93 %-point
Concentration of H2O2 (%-point) ([3]; Series II, catheter swelled in distilled water, 50 kGy, 1 week at 60° C.): 0.81 %-point
Concentration of H2O2 (%-point) ([3]; Series II, catheter swelled in distilled water, 50 kGy, 2 weeks at 60° C.): 0.75 %-point
Concentration of H2O2 (%-point) ([3]; Series II, catheter swelled in distilled water, 50 kGy, after irradiation): 0.87 %-point
Concentration of H2O2 (%-point) ([3]; Series II, catheter swelled in distilled water, 75 kGy, 1 week at 60° C.): 0.74 %-point
Concentration of H2O2 (%-point) ([3]; Series II, catheter swelled in distilled water, 75 kGy, 2 weeks at 60° C.): 0.66 %-point
Concentration of H2O2 (%-point) ([3]; Series II, catheter swelled in distilled water, 75 kGy, after irradiation): 0.81 %-point
Concentration of H2O2 (%-point) ([3]; Series III, H2O2-solution in distilled water, 0 kGy, 1 week at 60° C.): 0.87 %-point
Concentration of H2O2 (%-point) ([3]; Series III, H2O2-solution in distilled water, 0 kGy, 2 weeks at 60° C.): 0.76 %-point
Concentration of H2O2 (%-point) ([3]; Series III, H2O2-solution in distilled water, 0 kGy, after irradiation): 1.00 %-point
Concentration of H2O2 (%-point) ([3]; Series III, H2O2-solution in distilled water, 25 kGy, 1 week at 60° C.): 0.91 %-point
Concentration of H2O2 (%-point) ([3]; Series III, H2O2-solution in distilled water, 25 kGy, 2 weeks at 60° C.): 0.88 %-point
Concentration of H2O2 (%-point) ([3]; Series III, H2O2-solution in distilled water, 25 kGy, after irradiation): 0.95 %-point
Concentration of H2O2 (%-point) ([3]; Series III, H2O2-solution in distilled water, 50 kGy, 1 week at 60° C.): 0.84 %-point
Concentration of H2O2 (%-point) ([3]; Series III, H2O2-solution in distilled water, 50 kGy, 2 weeks at 60° C.): 0.85 %-point
Concentration of H2O2 (%-point) ([3]; Series III, H2O2-solution in distilled water, 50 kGy, after irradiation): 0.92 %-point
Concentration of H2O2 (%-point) ([3]; Series III, H2O2-solution in distilled water, 75 kGy, 1 week at 60° C.): 0.79 %-point
Concentration of H2O2 (%-point) ([3]; Series III, H2O2-solution in distilled water, 75 kGy, 2 weeks at 60° C.): 0.77 %-point
Concentration of H2O2 (%-point) ([3]; Series III, H2O2-solution in distilled water, 75 kGy, after irradiation): 0.89 %-point
calculated amount of degraded H2O2 after 2 years of storage at 23° C. ([4]; pH 4): 15.7%
calculated amount of degraded H2O2 after 2 years of storage at 23° C. ([4]; pH 5.5): 31.7%
calculated amount of degraded H2O2 after 2 years of storage at 23° C. ([4]; pH 7): 54.7%
speed of effect compared to a range of other anti-microbial agents [5]: rapid
H2O2 disappeared during storage ([6]; 1 week at 80° C., samples not containing PEG 2000, regardless of initial H2O2 concentration): 25-30%
%-point H2O2 after storage [6, 8]: 0.20 %-point
Appearance of catheter (0–5; 0 = perfect, 5 = unacceptable) [6, 8]: 0
Appearance of swelling medium (0–5) [6, 8]: 0
Loss of H2O2 (%/day) [6, 8]: 0.3 %/day
pH after storage [6, 8]: 5.64
%-point H2O2 after storage [6, 9]: 0.15 %-point
Appearance of catheter (0–5; 0 = perfect, 5 = unacceptable) [6, 9]: 0
Appearance of swelling medium (0–5) [6, 9]: 0
Loss of H2O2 (%/day) [6, 9]: 3.5 %/day
pH after storage [6, 9]: 5.63
%-point H2O2 after storage [6, 10]: 0.37 %-point
Appearance of catheter (0–5; 0 = perfect, 5 = unacceptable) [6, 10]: 0
Appearance of swelling medium (0–5) [6, 10]: 0
Loss of H2O2 (%/day) [6, 10]: 1.0 %/day
pH after storage [6, 10]: 5.63
%-point H2O2 after storage [6, 11]: 0.29 %-point
Appearance of catheter (0–5; 0 = perfect, 5 = unacceptable) [6, 11]: 0
Appearance of swelling medium (0–5) [6, 11]: 0
Loss of H2O2 (%/day) [6, 11]: 3.8 %/day
pH after storage [6, 11]: 5.79
%-point H2O2 after storage [6, 12]: 0.75 %-point
Appearance of catheter (0–5; 0 = perfect, 5 = unacceptable) [6, 12]: 0
Appearance of swelling medium (0–5) [6, 12]: 0
Loss of H2O2 (%/day) [6, 12]: 0.9 %/day
pH after storage [6, 12]: 5.63
%-point H2O2 after storage [6, 13]: 0.58 %-point
Appearance of catheter (0–5; 0 = perfect, 5 = unacceptable) [6, 13]: 0
Appearance of swelling medium (0–5) [6, 13]: 0
Loss of H2O2 (%/day) [6, 13]: 4.0 %/day
pH after storage [6, 13]: 5.86
%-point H2O2 after storage [6, 14]: 1.25 %-point
Appearance of catheter (0–5; 0 = perfect, 5 = unacceptable) [6, 14]: 1
Appearance of swelling medium (0–5) [6, 14]: 0
Loss of H2O2 (%/day) [6, 14]: 3.2 %/day
pH after storage [6, 14]: 5.13
%-point H2O2 after storage [6, 15]: 1.41 %-point
Appearance of catheter (0–5; 0 = perfect, 5 = unacceptable) [6, 15]: 0
Appearance of swelling medium (0–5) [6, 15]: 0
Loss of H2O2 (%/day) [6, 15]: 1.7 %/day
pH after storage [6, 15]: 5.71
%-point H2O2 after storage [6, 16]: 0.02 %-point
Appearance of catheter (0–5; 0 = perfect, 5 = unacceptable) [6, 16]: 3
Appearance of swelling medium (0–5) [6, 16]: 0
Loss of H2O2 (%/day) [6, 16]: 14.1 %/day
pH after storage [6, 16]: 3.46
%-point H2O2 after storage [6, 17]: 1.13 %-point
Appearance of catheter (0–5; 0 = perfect, 5 = unacceptable) [6, 17]: 0
Appearance of swelling medium (0–5) [6, 17]: 0
Loss of H2O2 (%/day) [6, 17]: 4.2 %/day
pH after storage [6, 17]: 6.28
Calculated degraded amount of H2O2 (%) after 2 years storage at 23° C. ([7]; 0 mM citrate, pH 5.5): 22.4%
Calculated degraded amount of H2O2 (%) after 2 years storage at 23° C. ([7]; 0 mM citrate, pH 7): 60.2%
Calculated degraded amount of H2O2 (%) after 2 years storage at 23° C. ([7]; 10 mM citrate, pH 4): 47.6%
Calculated degraded amount of H2O2 (%) after 2 years storage at 23° C. ([7]; 10 mM citrate, pH 5.5): 63.0%
Calculated degraded amount of H2O2 (%) after 2 years storage at 23° C. ([7]; 10 mM citrate, pH 7): 277.1%
Calculated degraded amount of H2O2 (%) after 2 years storage at 23° C. ([7]; 25 mM citrate, pH 5.5): 74.2%
Calculated degraded amount of H2O2 (%) after 2 years storage at 23° C. ([7]; 25 mM citrate, pH 7): 201.5%
